Where a SMILES comes first, the peptide text is derived from it. Where no end group is shown, it is not given here. The star is where a group is joined. Desaminohistidyl = O=C(CCc1c[nH]cn1)*
Legend:
[1] = In vitro plasma stability by porcine plasma incubation at 37° C.; assay type: in vitro ADME; conditions: pooled porcine plasma, 100 μg/ml, HPLC after SEP-PAK extraction
Description: In vitro plasma stability of GRF analogs were determined by porcine plasma incubation at 37° C. Pooled porcine plasma was collected from control pigs and stored at -20° C. GRF analogs of interest were prepared as discussed above. The plasma was first thawed and centrifuged at 3000 rpm for 20 minutes at 4° C. The plasma was then placed in a shaker bath at a temperature of 37° C. and allowed to equilibrate for 10 minutes. GRF analogs were dissolved in water containing 0.1% TFA at a concentration of 2 μg/μl. As soon as the initial equilibration was completed, an analog was added into the plasma sample to a final concentration of 100 μg/ml. Immediately after the addition of a GRF analog, a 1 ml aliquot of plasma sample was withdrawn and acidified with 0.2 ml of 0.1M TFA/H2 O and kept at 0° C. for later solid phase extraction. The remaining plasma samples were incubated in the water bath and 1 ml aliquots were withdrawn at different time periods and acidified by the same procedure described above.
Plasma samples were extracted with SEP-PAK octadecyl columns (Waters Associates). The column cartridge was washed with 2 ml 80% acetic acid followed by 4 ml of 0.01M TFA. After the plasma sample was loaded, the column was washed with 3 ml of 0.1M TFA to remove the excess unbound biological material. The solvent remaining in the cartridges was forced out by two passes of air from a 10 ml syringe. The bound material was then eluted with 80% acetic acid and 3 ml eluate was collected for chromatographic analysis. Two high performance liquid chromatography systems were used. System A: Instrumentation--Perkin-Elmer Series 4 liquid chromatography microprocessor-controlled solvent delivery system, Waters intelligent sample processor (WISP) model 710 (Waters Associates), and a Hewlett-Packard 1040M Diode Assay Detection System. Column--Delta Pak C18, 3.5×150 mm, 5 μm spherical (Nihon Waters Ltd.). Mobile phase-(A) 0.1% TFA in H2 O, (B) 0.1% TFA in 95% acetonitrile and 5% H2 O. Gradient was 34-50% (B) in 60 minutes, flow rate 1 ml/minute, and the detection was at 215 nm. System B: Instrumentation--Waters 600 multi-solvent delivery system, WISP model 712 and LDC spectromonitor III. Column--Vydac 201TP54, C18 4.6×250 mm, 10 μm (The Separations Group). Mobile phase--same as in System A. Gradient max 30% (B) isocratic for 10 minutes, followed by 30-50% (B) gradient for 60 minutes, flow rate was 1 ml/minute, and the detection was at 215 nm. Amino acid analysis was done as described above. Results of plasma half life are found in Table 2.

rat pituitary cells = assay type: cell-based
Description: The biological activity of the novel peptides were compared with that of a synthetic standard of the natural sequence of GRF(1-44)-NH2 which was isolated from a human pancreatic tumor of an individual suffering from acromegaly (Salk Institute standard hp-GRF-NH2 (NL-A-10)). The assay for biological activity, which is based on the ability to stimulate production of growth hormone in rat pituitary cells in tissue culture, was performed in the following manner. Pituitaries from 30-40 male Sprague-Dawley rats (175 g) were removed aseptically after decapitation. The anterior lobes were collected, washed 3 times in sterile Hepes buffer (0.025M)(pH 7.35) and dispersed at 37° C. in 20-30 ml Hepes buffer (pH 7.35) containing collagenasa (4 mg per ml) and Dispase (Protease grande II, 2 mg per ml). After gentle 80 min. vortexing and trituration by Pasteur pipette, the dispersed cells were separated by centrifugation (150×g, 4 min.) and re-suspended in Hepes buffer containing neuraminidase (4 μg/ml), and 200 μg/ml ethylenediaminetetraacetic acid (EDTA) disodium salt pH 7.35, for 10 min. The cells were washed twice with plating medium and plated on multiwell-plates (1.5×10^5 cells per ml) using the following defined medium: F-12/DMEM/BGJ(6:3:1) (Gibco: 430-1700/430-1600/320-2591) with 2 g BSA/1., 2.38 g Hepes/1., 50 mg Gentamycin/1 (Schering Co.). The medium in each well was supplemented either with the novel peptide or natural GRF(1-44)-NH2 at concentrations ranging from 3.1 to 200 fmol. per ml. of medium. Control wells contained no supplement. Plating was done with this medium added with 2% fetal calf serum to ensure rapid fixation of the cells. On the fourth day the cells were washed twice with the defined medium without fetal calf serum. Finally 900 μl of defined medium was added to each well plus 100 μl of the same medium containing each individual treatment, in triplicate. After 3 hours of incubation the medium was collected and diluted as required to conduct radioimmuno- assays (RIAs) for rat growth hormone. RIAs were conducted using Sinha's anti-murine GH immune serum and procedures according to the National Pituitary Agency using protein A to precipitate antibody antigen complex.

Row | Compound | Half Life (t1/2) [1] [h] | Potency of GRF Analogs Relative to GRF(1-44)-NH2 (rat pituitary cells)
1 | YVDAIFTNSYRKVLAQLSARKLLQDILSRQQG [[Val^2,Ala^15,Leu^27]-GRF(1-32)-OH] | 1.17 | –
2 | YADAIFTNSYRKVLAQLSARKLLQDIMSR-NH2 [[Ala^15]-GRF(1-29)-NH2, reference compound] | 0.283 | –
3 | HVDAIFTNSYRKVLAQLSARKLLQDILSRQQG [[His^1,Val^2,Ala^15,Leu^27]-GRF(1-32)-OH] | 1 | 2.40
4 | CC[C@H](C)[C@H](NC(=O)[C@H](C)NC(=O)[C@H](CC(=O)O)NC(=O)[C@H](C)NC(=O)[C@@H](N)Cc1ccc(O)cc1)C(=O)N[C@@H](Cc1ccccc1)C(=O)N[C@H](C(=O)N[C@@H](CC(N)=O)C(=O)N[C@@H](CO)C(=O)N[C@@H](Cc1ccc(O)cc1)C(=O)N[C@@H](CCCNC(=N)N)C(=O)N[C@@H](CCCCN)C(=O)N[C@H](C(=O)N[C@@H](CC(C)C)C(=O)NCC(=O)N[C@@H](CCC(N)=O)C(=O)N[C@@H](CC(C)C)C(=O)N[C@@H](CO)C(=O)N[C@@H](C)C(=O)N[C@@H](CCCNC(=N)N)C(=O)N[C@@H](CCCCN)C(=O)N[C@@H](CC(C)C)C(=O)N[C@@H](CC(C)C)C(=O)N[C@@H](CCC(N)=O)C(=O)N[C@@H](CC(=O)O)C(=O)N[C@H](C(=O)N[C@@H](CCSC)C(=O)N[C@@H](CO)C(=O)N[C@@H](CCCNC(=N)N)C(N)=O)[C@@H](C)CC)C(C)C)[C@@H](C)O [GRF(1-29)-NH2, reference compound] | 0.217 | 0.71
5 | CC[C@H](C)[C@H](NC(=O)[C@H](C)NC(=O)[C@H](CC(=O)O)NC(=O)[C@H](C)NC(=O)[C@@H](N)Cc1ccc(O)cc1)C(=O)N[C@@H](Cc1ccccc1)C(=O)N[C@H](C(=O)N[C@@H](CC(N)=O)C(=O)N[C@@H](CO)C(=O)N[C@@H](Cc1ccc(O)cc1)C(=O)N[C@@H](CCCNC(=N)N)C(=O)N[C@@H](CCCCN)C(=O)N[C@H](C(=O)N[C@@H](CC(C)C)C(=O)NCC(=O)N[C@@H](CCC(N)=O)C(=O)N[C@@H](CC(C)C)C(=O)N[C@@H](CO)C(=O)N[C@@H](C)C(=O)N[C@@H](CCCNC(=N)N)C(=O)N[C@@H](CCCCN)C(=O)N[C@@H](CC(C)C)C(=O)N[C@@H](CC(C)C)C(=O)N[C@@H](CCC(N)=O)C(=O)N[C@@H](CC(=O)O)C(=O)N[C@H](C(=O)N[C@@H](CCSC)C(=O)N[C@@H](CO)C(=O)N[C@@H](CCCNC(=N)N)C(=O)N[C@@H](CCC(N)=O)C(=O)N[C@@H](CCC(N)=O)C(=O)NCC(=O)N[C@@H](CCC(=O)O)C(=O)N[C@@H](CO)C(=O)N[C@@H](CC(N)=O)C(=O)N[C@@H](CCC(N)=O)C(=O)N[C@@H](CCC(=O)O)C(=O)N[C@@H](CCCNC(=N)N)C(=O)NCC(=O)N[C@@H](C)C(=O)N[C@@H](CCCNC(=N)N)C(=O)N[C@@H](C)C(=O)N[C@@H](CCCNC(=N)N)C(=O)N[C@@H](CC(C)C)C(N)=O)[C@@H](C)CC)C(C)C)[C@@H](C)O [GRF(1-44)-NH2, reference compound] | – | 1.00
6 | HVDAIFTNSYRKVLAQLSARKLLQDIMSR-NH2 [[His^1,Val^2,Ala^15]-GRF(1-29)-NH2] | 1 | 2.58
7 | CC[C@H](C)[C@H](NC(=O)[C@H](C)NC(=O)[C@H](CC(=O)O)NC(=O)[C@@H](NC(=O)CCc1c[nH]cn1)C(C)C)C(=O)N[C@@H](Cc1ccccc1)C(=O)N[C@H](C(=O)N[C@@H](CC(N)=O)C(=O)N[C@@H](CO)C(=O)N[C@@H](Cc1ccc(O)cc1)C(=O)N[C@@H](CCCNC(=N)N)C(=O)N[C@@H](CCCCN)C(=O)N[C@H](C(=O)N[C@@H](CC(C)C)C(=O)N[C@@H](C)C(=O)N[C@@H](CCC(N)=O)C(=O)N[C@@H](CC(C)C)C(=O)N[C@@H](CO)C(=O)N[C@@H](C)C(=O)N[C@@H](CCCNC(=N)N)C(=O)N[C@@H](CCCCN)C(=O)N[C@@H](CC(C)C)C(=O)N[C@@H](CC(C)C)C(=O)N[C@@H](CCC(N)=O)C(=O)N[C@@H](CC(=O)O)C(=O)N[C@H](C(=O)N[C@@H](CCSC)C(=O)N[C@@H](CO)C(=O)N[C@@H](CCCNC(=N)N)C(N)=O)[C@@H](C)CC)C(C)C)[C@@H](C)O [[desNH2 His^1,Val^2,Ala^15]-GRF(1-29)-NH2] (Desaminohistidyl-VDAIFTNSYRKVLAQLSARKLLQDIMSR-NH2) | – | 1.21
8 | HIDAIFTNSYRKVLAQLSARKLLQDIMSR-NH2 [[His^1,Ile^2,Ala^15]-GRF(1-29)-NH2] | – | 1.24

Reference: patent US5696089A, “Histidine substituted growth hormone releasing factor analogs” (Roche Vitamins Inc., priority 1995, dated 1997)
